How the values were obtained:
Assay type in all cases: in vivo
[1] = system: Echinochloa crus-galli var. formosensis; assay: Test Example 1: herbicidal effect test by soil application in paddy rice; conditions: Echinochloa crus-galli, soil, 336 h; 120 g active ingredient per 10 ares; applied immediately after sowing, flooded pots; 14 days after application; read-out: weed inhibition rate
Procedure, shortened: (§1)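 Flooded-pot paddy assay: sow at 0–1 cm, flood to about 3 cm, then apply diluted emulsifiable concentrate by dropper, 120 g a.i. per 10 ares; greenhouse-grown.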

Scirpus juncoides [2] = assay: as above; conditions: Schoenoplectiella juncoides, soil, 336 h; 120 g active ingredient per 10 ares; applied immediately after sowing, flooded pots; 14 days after application; read-out: weed inhibition rate
Procedure, shortened: as §1

[3] = system: Echinochloa crus-galli var. formosensis; assay: Test Example 2: herbicidal effect test by application during growth period of paddy rice; conditions: Echinochloa crus-galli; 120 g per 10 ares; applied seven days after sowing, flooded pots; 14 days after application; read-out: weed inhibition rate
Procedure, shortened: (§2)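 Paddy soil in Wagner pots was puddled with N:P:K 16:16:16 fertilizer, sown with 30 weed seeds per species at 0–1 cm and flooded to about 3 cm. Seven days after sowing, a water-diluted emulsifiable concentrate was dropped onto the water at 120 g active ingredient per 10 ares. Weed inhibition (%) was scored at 14 days, in duplicate.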

Scirpus juncoides [4] = assay: as above; conditions: Schoenoplectiella juncoides; 120 g per 10 ares; applied seven days after sowing, flooded pots; 14 days after application; read-out: weed inhibition rate
Procedure, shortened: as §2

Digitaria ciliaris [5] = assay: Test Example 3: herbicidal effect test by soil application in upland field; conditions: Digitaria ciliaris, 120 g per 10 ares, sprayed one day after sowing, 14 days after application, read-out: weed inhibition rate
Procedure, shortened: (§3)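 Weed inhibition (%) was assessed 14 days after treatment, in duplicate per concentration group. Seeds had been mixed into the upper 1 cm of upland alluvial loam, and the soil surface was sprayed one day later with the diluted emulsifiable concentrate at 120 g active ingredient per 10 ares.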

Echinochloa crus-galli [6] = assay: as above; conditions: Echinochloa crus-galli, 120 g per 10 ares, sprayed one day after sowing, 14 days after application, read-out: weed inhibition rate
Procedure, shortened: as §3

Digitaria ciliaris [7] = assay: Test Example 4: herbicidal effect test by stem and leaf treatment in upland field; conditions: Digitaria ciliaris; 120 g per 10 ares; sprayed seven days after sowing, upland soil; 14 days after application; read-out: weed inhibition rate
Echinochloa crus-galli [8] = assay: as above; conditions: Echinochloa crus-galli; 120 g per 10 ares; sprayed seven days after sowing, upland soil; 14 days after application; read-out: weed inhibition rate
[9] = system: Echinochloa crus-galli var. formosensis; assay: Test Example 5: herbicidal effect test by soil application in paddy rice (low dose); conditions: Echinochloa crus-galli, soil, 336 h; 7.5 g per 10 ares; applied immediately after sowing, flooded pots; 14 days after application; read-out: weed inhibition rate
Procedure, shortened: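 Paddy soil in Wagner pots was fertilized (N:P:K 16:16:16), puddled, sown with 30 seeds per weed species at 0–1 cm, then flooded to ~3 cm in a glass greenhouse. Emulsifiable concentrate diluted in water was dropper-applied into floodwater immediately, at 7.5 g active ingredient per 10 ares; duplicates, scored at 14 days.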

[10] = system: Echinochloa crus-galli var. formosensis; assay: Test Example 6: herbicidal effect test by application during growth period of paddy rice (low dose); conditions: Echinochloa crus-galli; 7.5 g per 10 ares; applied seven days after sowing, flooded pots; 14 days after application; read-out: weed inhibition rate
Procedure, shortened: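 Emulsifiable concentrate, water-diluted, dropped onto flooded paddy pots 7 days post-sowing at 7.5 g active ingredient/10 a. Greenhouse-grown weeds; percent inhibition scored at day 14 after treatment.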

Digitaria ciliaris [11] = assay: Test Example 7: herbicidal effect test by soil application in upland field (low dose); conditions: Digitaria ciliaris, 7.5 g per 10 ares, sprayed one day after sowing, 14 days after application, read-out: weed inhibition rate
Procedure, shortened: (§4)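 Pre-emergence soil application: upland alluvial loam pots sown with weed seeds mixed into the top 1 cm; one day after sowing, a water-diluted emulsifiable concentrate was sprayed on the soil at 100 L per 10 a, delivering 7.5 g active ingredient per 10 a. Weed inhibition rate (%) scored 14 days after application, duplicate pots.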

Echinochloa crus-galli [12] = assay: as above; conditions: Echinochloa crus-galli, 7.5 g per 10 ares, sprayed one day after sowing, 14 days after application, read-out: weed inhibition rate
Procedure, shortened: as §4

Digitaria ciliaris [13] = assay: Test Example 8: herbicidal effect test by stem and leaf treatment in upland field (low dose); conditions: Digitaria ciliaris; 7.5 g per 10 ares; sprayed seven days after sowing, upland soil; 14 days after application; read-out: weed inhibition rate
Echinochloa crus-galli [14] = assay: as above; conditions: Echinochloa crus-galli; 7.5 g per 10 ares; sprayed seven days after sowing, upland soil; 14 days after application; read-out: weed inhibition rate

CC(C)C12CC(OCc3ccccc3F)C(C)(CC1I)O2 (stereo not shown) [1-1421, 2-[(2-fluorophenyl)methoxy]-5-iodo-1-methyl-4-isopropyl-7-oxabicyclo[2.2.1]heptane]
≥ 80%: pest or weed control at 1200 g/ha [1] | pest or weed control at 1200 g/ha (Scirpus juncoides [2]) | inhibition at 1200 g/ha [3] | inhibition at 1200 g/ha (Scirpus juncoides [4]) | inhibition at 1200 g/ha (Digitaria ciliaris [5]) | inhibition at 1200 g/ha (Echinochloa crus-galli [6]) | inhibition at 1200 g/ha (Digitaria ciliaris [7]) | inhibition at 1200 g/ha (Echinochloa crus-galli [8]) | inhibition at 75 g/ha [9] | inhibition at 75 g/ha [10] | inhibition at 75 g/ha (Digitaria ciliaris [11]) | inhibition at 75 g/ha (Echinochloa crus-galli [12]) | inhibition at 75 g/ha (Digitaria ciliaris [13]) | inhibition at 75 g/ha (Echinochloa crus-galli [14])

CC(C)C12CC(OCc3ccccc3Cl)C(C)(CC1I)O2 (stereo not shown) [1-1424, 5-[(2-chlorophenyl)methoxy]-2-iodo-1-isopropyl-4-methyl-7-oxabicyclo[2.2.1]heptane]
≥ 80%: pest or weed control at 1200 g/ha [1] | pest or weed control at 1200 g/ha (Scirpus juncoides [2]) | inhibition at 1200 g/ha [3] | inhibition at 1200 g/ha (Scirpus juncoides [4]) | inhibition at 1200 g/ha (Digitaria ciliaris [5]) | inhibition at 1200 g/ha (Echinochloa crus-galli [6]) | inhibition at 1200 g/ha (Digitaria ciliaris [7]) | inhibition at 1200 g/ha (Echinochloa crus-galli [8]) | inhibition at 75 g/ha [9] | inhibition at 75 g/ha [10] | inhibition at 75 g/ha (Digitaria ciliaris [11]) | inhibition at 75 g/ha (Echinochloa crus-galli [12]) | inhibition at 75 g/ha (Digitaria ciliaris [13]) | inhibition at 75 g/ha (Echinochloa crus-galli [14])

CC(C)C12CC(OCc3ccccc3Br)C(C)(CC1I)O2 (stereo not shown) [1-1427, 5-[(2-bromophenyl)methoxy]-2-iodo-1-isopropyl-4-methyl-7-oxabicyclo[2.2.1]heptane]
≥ 80%: pest or weed control at 1200 g/ha [1] | pest or weed control at 1200 g/ha (Scirpus juncoides [2]) | inhibition at 1200 g/ha [3] | inhibition at 1200 g/ha (Scirpus juncoides [4]) | inhibition at 1200 g/ha (Digitaria ciliaris [5]) | inhibition at 1200 g/ha (Echinochloa crus-galli [6]) | inhibition at 1200 g/ha (Digitaria ciliaris [7]) | inhibition at 1200 g/ha (Echinochloa crus-galli [8]) | inhibition at 75 g/ha [9] | inhibition at 75 g/ha [10] | inhibition at 75 g/ha (Digitaria ciliaris [11]) | inhibition at 75 g/ha (Echinochloa crus-galli [12]) | inhibition at 75 g/ha (Digitaria ciliaris [13]) | inhibition at 75 g/ha (Echinochloa crus-galli [14])

CC(C)C12CC(OCc3ccccc3C#N)C(C)(CC1I)O2 (stereo not shown) [1-1436, 2-[(5-iodo-1-methyl-4-isopropyl-7-oxabicyclo[2.2.1]heptan-2-yl)oxymethyl]benzonitrile]
≥ 80%: pest or weed control at 1200 g/ha [1] | pest or weed control at 1200 g/ha (Scirpus juncoides [2]) | inhibition at 1200 g/ha [3] | inhibition at 1200 g/ha (Scirpus juncoides [4]) | inhibition at 1200 g/ha (Digitaria ciliaris [5]) | inhibition at 1200 g/ha (Echinochloa crus-galli [6]) | inhibition at 1200 g/ha (Digitaria ciliaris [7]) | inhibition at 1200 g/ha (Echinochloa crus-galli [8]) | inhibition at 75 g/ha [9] | inhibition at 75 g/ha [10] | inhibition at 75 g/ha (Digitaria ciliaris [11]) | inhibition at 75 g/ha (Echinochloa crus-galli [12]) | inhibition at 75 g/ha (Digitaria ciliaris [13]) | inhibition at 75 g/ha (Echinochloa crus-galli [14])

Cc1cccc(C)c1COC1CC2(C(C)C)OC1(C)CC2I (stereo not shown) [1-1445, 5-[(2,6-dimethylphenyl)methoxy]-2-iodo-1-isopropyl-4-methyl-7-oxabicyclo[2.2.1]heptane]
≥ 80%: pest or weed control at 1200 g/ha [1] | pest or weed control at 1200 g/ha (Scirpus juncoides [2]) | inhibition at 1200 g/ha [3] | inhibition at 1200 g/ha (Scirpus juncoides [4]) | inhibition at 1200 g/ha (Digitaria ciliaris [5]) | inhibition at 1200 g/ha (Echinochloa crus-galli [6]) | inhibition at 1200 g/ha (Digitaria ciliaris [7]) | inhibition at 1200 g/ha (Echinochloa crus-galli [8]) | inhibition at 75 g/ha [9] | inhibition at 75 g/ha [10] | inhibition at 75 g/ha (Digitaria ciliaris [11]) | inhibition at 75 g/ha (Echinochloa crus-galli [12]) | inhibition at 75 g/ha (Digitaria ciliaris [13]) | inhibition at 75 g/ha (Echinochloa crus-galli [14])

CC(C)C12CC(OCc3c(F)cccc3F)C(C)(CC1I)O2 (stereo not shown) [1-1446, 5-[(2,6-difluorophenyl)methoxy]-2-iodo-1-isopropyl-4-methyl-7-oxabicyclo[2.2.1]heptane]
≥ 80%: pest or weed control at 1200 g/ha [1] | pest or weed control at 1200 g/ha (Scirpus juncoides [2]) | inhibition at 1200 g/ha [3] | inhibition at 1200 g/ha (Scirpus juncoides [4]) | inhibition at 1200 g/ha (Digitaria ciliaris [5]) | inhibition at 1200 g/ha (Echinochloa crus-galli [6]) | inhibition at 1200 g/ha (Digitaria ciliaris [7]) | inhibition at 1200 g/ha (Echinochloa crus-galli [8]) | inhibition at 75 g/ha [9] | inhibition at 75 g/ha [10] | inhibition at 75 g/ha (Digitaria ciliaris [11]) | inhibition at 75 g/ha (Echinochloa crus-galli [12]) | inhibition at 75 g/ha (Digitaria ciliaris [13]) | inhibition at 75 g/ha (Echinochloa crus-galli [14])

CC(C)C12CC(OCc3c(Cl)cccc3Cl)C(C)(CC1I)O2 (stereo not shown) [1-1447, 5-[(2,6-dichlorophenyl)methoxy]-2-iodo-1-isopropyl-4-methyl-7-oxabicyclo[2.2.1]heptane]
≥ 80%: pest or weed control at 1200 g/ha [1] | pest or weed control at 1200 g/ha (Scirpus juncoides [2]) | inhibition at 1200 g/ha [3] | inhibition at 1200 g/ha (Scirpus juncoides [4]) | inhibition at 1200 g/ha (Digitaria ciliaris [5]) | inhibition at 1200 g/ha (Echinochloa crus-galli [6]) | inhibition at 1200 g/ha (Digitaria ciliaris [7]) | inhibition at 1200 g/ha (Echinochloa crus-galli [8]) | inhibition at 75 g/ha [9] | inhibition at 75 g/ha [10] | inhibition at 75 g/ha (Digitaria ciliaris [11]) | inhibition at 75 g/ha (Echinochloa crus-galli [12]) | inhibition at 75 g/ha (Digitaria ciliaris [13]) | inhibition at 75 g/ha (Echinochloa crus-galli [14])

CC(C)C12CC(OCc3c(F)cccc3Cl)C(C)(CC1I)O2 (stereo not shown) [1-1448, 5-[(2-chloro-6-fluoro-phenyl)methoxy]-2-iodo-1-isopropyl-4-methyl-7-oxabicyclo[2.2.1]heptane]
≥ 80%: pest or weed control at 1200 g/ha [1] | pest or weed control at 1200 g/ha (Scirpus juncoides [2]) | inhibition at 1200 g/ha [3] | inhibition at 1200 g/ha (Scirpus juncoides [4]) | inhibition at 1200 g/ha (Digitaria ciliaris [5]) | inhibition at 1200 g/ha (Echinochloa crus-galli [6]) | inhibition at 1200 g/ha (Digitaria ciliaris [7]) | inhibition at 1200 g/ha (Echinochloa crus-galli [8]) | inhibition at 75 g/ha [9] | inhibition at 75 g/ha [10] | inhibition at 75 g/ha (Digitaria ciliaris [11]) | inhibition at 75 g/ha (Echinochloa crus-galli [12]) | inhibition at 75 g/ha (Digitaria ciliaris [13]) | inhibition at 75 g/ha (Echinochloa crus-galli [14])

Reference: patent EP4707280A1, “1,4-CINEOLE DERIVATIVE AND INTERMEDIATE THEREOF, HERBICIDE CONTAINING SAID DERIVATIVE AS ACTIVE INGREDIENT, METHOD FOR USING HERBICIDE, AND METHOD FOR PREPARING AGROCHEMICAL COMPOSITION” (HOKKO CHEMICAL INDUSTRY CO., LTD., priority 2023, dated 2024)
